Laboratory results taken from patent US8133861B2, “Systemic purine administration: modulating axonal outgrowth of central nervous system neurons” (Alseres Pharmaceuticals, Inc., priority 2008, dated 2012).
“Also recorded” adds a separate entry of the source.

Key:
[1] = test system: central nervous system injury; test: Treatment of a subject with central nervous system injury with inosine (Examples 5, 9, 13); assay type: in vivo
Procedure: A subject with central nervous system injury, is treated with an intravenous infusion of a solution of inosine (50 mM) and NaCl (0.15M) at a rate of 1 g/kg/day. […] A subject with central nervous system injury, is treated with a subcutaneous injection of a solution of inosine (50 mM) and NaCl (0.15M) at a rate of 1 g/kg/day. […] A subject with central nervous system injury is treated with intravenous infusion of a solution of inosine in a formulation of 0.1% sodium bicarbonate 70 mg/mL inosine, pH9.2. The 250 ml of the inosine formulation is infused over a two hour period. This procedure is repeated for 14 days.

traumatic brain injury = test: Treatment of a subject with a traumatic brain injury with inosine (Examples 8, 12); assay type: in vivo; conditions: inosine (50 mM) and NaCl (0.15M), 1 g/kg/day
Procedure: (§1) A subject with a traumatic brain injury, is treated with an intravenous infusion of a solution of inosine (50 mM) and NaCl (0.15M) at a rate of 1 g/kg/day. […] A subject with a traumatic brain injury, is treated with subcutaneous injection of a solution of inosine (50 mM) and NaCl (0.15M) at a rate of 1 g/kg/day.

spinal cord injury = test: Treatment of a subject with a spinal cord injury with inosine (Examples 7, 11); assay type: in vivo; conditions: inosine (50 mM) and NaCl (0.15M), 1 g/kg/day
Procedure: as §1, with “with a spinal cord injury, is” for “with a traumatic brain injury, is”, “treated with an subcutaneous injection” for “treated with subcutaneous injection”

stroke = test: Treatment of a subject with an onset of stroke with inosine (Examples 6, 10); assay type: in vivo; conditions: inosine (50 mM) and NaCl (0.15M), 1 g/kg/day
Procedure: A subject with an onset of stroke, is treated with an intravenous infusion of a solution of inosine (50 mM) and NaCl (0.15M) at a rate of 1 g/kg/day. […] A subject with an onset of stroke, is treated with an subcutaneous injection of a solution of inosine (50 mM) and NaCl (0.15M) at a rate of 1 g/kg/day.

[2] = Brain (medial prefrontal cortex) microdialysate inosine during intravenous inosine infusion in rats; assay type: in vivo, rat; conditions: for CNS microdialysate inosine, percent of baseline / CNS microdialysate inosine, maximal increase (percent of baseline) / time to maximal increase of CNS microdialysate inosine: rat
Procedure: (§2) Two groups of three rats were dosed intravenously with a total of 4 different concentrations of inosine and vehicle, providing within-subjects comparisons. Rats were anesthetized and each was surgically implanted above the medial prefrontal cortex (A-P +3.2 and M-L +1.0 from Bregma, D-V −2.0 from the skull surface) with an intracerebral guide cannula that was replaced after three days by a microdialysis probe. The microdialyses probes were continually flushed with artificial cerebrospinal fluid (aCSF). Catheters were inserted into the jugular vein for inosine dosing and into the femoral artery for blood collection.
(§3) Inosine formulated in aqueous bicarbonate buffer (pH 9.2) was administered by intravenous infusion for up to two hours to two groups of rats (N=3 per group) and the microdialysis probes were perfused with aCSF at a rate of 0.015 mL/minute. One group received nominal dose rates of 0 (vehicle), 100, and 300 mg/kg/hour, and the other group received nominal dose rates of 0, 500, and 700 mg/kg/hour. Each nominal infusion rate was 10 mL/kg/hour and was separated by a 2-day washout period.
(§4) Blood samples and brain microdialysates were collected prior to each dose to establish basal concentrations of inosine, and for a period of 2 hrs after each dose to determine the percent of change (increase, decrease, or none) relative to basal. Microdialysate and blood plasma inosine concentrations were measured using an LC/MS/MS assay. The lower limit of quantitation of the rat plasma analysis and the CNS microdialysate was 0.25 ng/mL.
The subjects were naïve, male, Sprague-Dawley rats procured for this study from Harlan Spraque Dawley, Inc. (Indianapolis, Ind.). All rats selected for surgeries were quarantined, inspected and deemed acceptable for surgery by technicians qualified to make this assessment. Intracerebral guide cannulae were surgically implanted above the medial prefrontal cortex (mPFC). Rats were provided with a single dose of analgesic immediately after surgery to alleviate discomfort. Animals were inspected frequently during post-surgical recovery. After 3 days, the stylet in the intracerebral guide cannula was replaced with a microdialysis probe.
(§5) All study subjects were dosed via JVC catheters without handling. Prior to collecting pre-dose microdialysates, glass vials were loaded with the appropriate drug solution and connected to an Empis system. All rats received the doses of inosine they were intended to receive, as the infusion rate was ˜50 μl/min over the 2 hr dosing period. Two days later, all rats received the doses of inosine they were intended to receive, as the infusion rate was ˜50 μl/min over the 2 hr dosing period. All rats then received reduced doses of inosine, as the infusion rat was reduced to ˜40 μl/min over a 2 hr dosing period.
(§6) Samples of CNS microdialysate (0.03 mL) and arterial blood (0.15 mL) were taken for analysis of inosine concentration before infusion, and at specified times after the start of the infusions (20, 40, 60, 80, and 120 minutes).
Changes in inosine concentrations are expressed as percent of baseline in order to compare changes in inosine concentrations between treatments.
(§7) Changes in inosine concentrations (percent of baseline) were determined by dividing a particular post-dose inosine concentration (ng/mL) by the average of 4 pre-dose (baseline) inosine concentrations (ng/mL) and multiplying this value by 100%. Where plasma inosine (μg/mL) values appeared to reach steady-state by inspection of the last three time points, approximately values for clearance (L/kg/hour) were obtained from the relationship, clearance=infusion rate (mg/kg/hour)/steady-state concentration (mg/L). Mean percent of baseline changes in inosine concentrations were plotted for each treatment condition.

[3] = Plasma inosine during 2-hr intravenous inosine infusion in rats (LC/MS/MS); assay type: in vivo, rat; conditions: for clearance: male, Sprague-Dawley, plasma, iv, infusion rate/steady-state concentration; for clearance / Plasma inosine concentration, maximal value / Steady-state mean plasma inosine level: rat
Procedure: as §2, §3, §4, §5, §6, §7

[4] = test system: rat hemisection model of spinal cord injury; test: Rat dorsal hemisection model of spinal cord injury, BBB score of locomotor function; assay type: in vivo; conditions: approximately 2 mg/kg/hr
Procedure: This example considers intravenous infusion of inosine in rodent model of acute spinal cord injury. Rats were anesthetized and each was subjected to laminectomy in the thoracic region of the spinal cord, followed by dorsal hemisection of the spinal cord that included severance of the cortical spinal tract as a model of spinal cord injury (SCI). These rats were divided into two groups: one group was dosed by continuous intravenous infusion of 70 mg/mL (261 mM) inosine formulated in 0.1% sodium bicarbonate solution, pH approximately 9.2, for four weeks, and the other group was dosed by continuous intravenous infusion with 0.1% sodium bicarbonate vehicle control for four weeks. The infusion rate was 10 microliters per hour for inosine (approximately 2 mg/kg/hr) and vehicle dosing, and the infusions were started immediately after the SCI. In this regard it is noted that dosing at 2 mg/kg/hr represents a dose of about 48 mg/kg/day. In a 70 kg subject this is equivalent to about 3-4 g/day. Attention is drawn to daily doses from about 1 g/day to about 10 gm/day with attention being drawn to doses of about 2 g/day and about 5 day.
Rats were evaluated one day post-SCI to verify completeness of the lesion, and then weekly for functional status by assessment using the Basso-Beattie-Bresnahan (BBB) score of locomotor function as judged by hind-limb function and forelimb:hind-limb coordination. […]

[5] = Inosine prototype formulations: approximate potency, solubility and precipitation; assay type: physicochemical
Procedure: A number of inosine formulations were examined. Preparatory steps were as follows:
Inosine protype formulations were prepared by adding inosine drug substance to tare vials containing about 3-5 mL of aqueous solutions containing various pharmaceutical excipients in various concentrations. […] Common I.V. solutions such as phosphate buffered saline, normal saline and 5% dextrose in water are noted.
Megulmine is known to function both as a solubilizing and alkalizing agent, thus precluding the need for a buffering species which would unfavorably increase ionic strength in the formulation.
The composition of each formulation is provided in Table I. The pH of the formulation is reported for those formulations for which it was tested.

For OC[C@H]1O[C@@H](n2cnc3c(O)ncnc32)[C@H](O)[C@@H]1O [inosine], the neurological deficit ([1]; Example 5: intravenous infusion, inosine (50 mM) and NaCl (0.15M), 1 g/kg/day) was “Amelioration of the neurological deficit”, the neurological deficit ([1]; Example 9: subcutaneous injection, inosine (50 mM) and NaCl (0.15M), 1 g/kg/day) was “Amelioration of the neurological deficit” and the neurological deficit ([1]; Example 13: intravenous infusion, 0.1% sodium bicarbonate 70 mg/mL inosine pH9.2, 250 ml over two hours, 14 days) was “Amelioration of the neurological deficit”. For the same compound, the neurological deficit (traumatic brain injury; Example 8: intravenous infusion) was “Amelioration of the neurological deficit”, the neurological deficit (traumatic brain injury; Example 12: subcutaneous injection) was “Amelioration of the neurological deficit” and the neurological deficit (spinal cord injury; Example 7: intravenous infusion) was “Amelioration of the neurological deficit”. The neurological deficit (spinal cord injury; Example 11: subcutaneous injection) was “Amelioration of the neurological deficit”, the neurological deficit (stroke; Example 6: intravenous infusion) was “Amelioration of the neurological deficit” and the neurological deficit (stroke; Example 10: subcutaneous injection) was “Amelioration of the neurological deficit”. For the same compound, the “CNS microdialysate inosine, percent of baseline” value ([2]; i.v. infusion 100 mg/kg/hour) was 113-146%, the “CNS microdialysate inosine, percent of baseline” value ([2]; i.v. infusion 300 mg/kg/hour) was 96-116% and the “CNS microdialysate inosine, maximal increase (percent of baseline)” value ([2]; i.v. infusion 500 mg/kg/hour) was 526-632%. For the same compound, the “time to maximal increase of CNS microdialysate inosine” value ([2]; i.v. infusion 500 mg/kg/hr) was at most 45 min, the “CNS microdialysate inosine, maximal increase (percent of baseline)” value ([2]; i.v. infusion 700 mg/kg/hour) was 574-653% and the “time to maximal increase of CNS microdialysate inosine” value ([2]; i.v. infusion 700 mg/kg/hr) was at most 45 min. The “inosine levels above background” value ([2]; rats, i.v., 160-200 mg/kg/2 hrs) was “approximately 170%”, the “inosine levels above background” value ([2]; rats, i.v., 480-600 mg/kg/2 hrs) was “approximately 170%” and the “interstitial inosine as compared with the baseline/predose concentrations” value ([2]; rats, i.v., about 800 to 1000 mg/kg over about two hours (Formulation 80 diluted to 50 mg/mL)) was “approximately 500%”. The clearance ([3]; i.v. infusion 300 mg/kg/hour) was 218 mL/min/kg, the clearance ([3]; i.v. infusion 500 mg/kg/hour) was 257 mL/min/kg and the “Plasma inosine concentration, maximal value” (from here on “Plasma inosine concentration”) ([3]; i.v. infusion 100 mg/kg/hr) was at most 7.2 µg/mL. The “Steady-state mean plasma inosine level” value ([3]; i.v. infusion 300 mg/kg/hour) was 22.8 µg/mL, the “Plasma inosine concentration” value ([3]; i.v. infusion 300 mg/kg/hr) was at most 26 µg/mL and the “Steady-state mean plasma inosine level” value ([3]; i.v. infusion 500 mg/kg/hour) was 32.4 µg/mL. The “Plasma inosine concentration” value ([3]; i.v. infusion 500 mg/kg/hr) was at most 45 µg/mL, the “Plasma inosine concentration” value ([3]; i.v. infusion 700 mg/kg/hr) was at most 146 µg/mL and the inosine plasma levels ([3]; rats, i.v., about 800 to 1000 mg/kg over about two hours) was “significant rise”. For the same compound, the functional outcome ([4]; continuous i.v. infusion, four weeks, P<0.01 weeks one and two, P<0.001 weeks three and four vs. vehicle) was “improves functional outcome; also recorded: continual or sustained improvement”, the BBB scores ([4]; three to four weeks post-SCI, continuous i.v. infusion 70 mg/mL, maximal score 21) was “near maximal possible values” and the inosine solubility ([5]; high pH environments) was “greatly enhanced”. The inosine solubility ([5]; higher concentrations of saline solutions) was “reduced solubility”.
